The source of these data is patent publication US20250230193A1, “CYCLIC COMPOUND HAVING SELECTIVE KRAS INHIBITORY EFFECT ON HRAS AND NRAS” (CHUGAI SEIYAKU KABUSHIKI KAISHA, priority 2022, published 2025).

Assay [1] concerns the target GDP-bound NRAS wild-type protein (Homo sapiens, UniProt P01111). Kind of assay: Binding to NRAS by surface plasmon resonance (SPR), Single Cycle Kinetics. On the technique in general: Surface plasmon resonance follows binding to a sensor surface in real time, without labels.
In assay [2] the target is GDP-bound HRAS wild-type protein (Homo sapiens, UniProt P01112). Description: Binding to HRAS by surface plasmon resonance (SPR), Single Cycle Kinetics.
The mark [3] stands for this setting: KD ratio, GDP-bound NRAS wild-type vs GDP-bound KRAS wild-type, SPR.
The mark [4] stands for this setting: KD ratio, GDP-bound HRAS wild-type vs GDP-bound KRAS wild-type, SPR.
[5] abbreviates: SPR, GDP-bound NRAS wild-type vs GDP-bound KRAS wild-type.
Setting [6] is: SPR, GDP-bound HRAS wild-type vs GDP-bound KRAS wild-type.

Where a SMILES comes first, the peptide text is derived from it. Bridges are numbered along the chain shown (N, C = ends). [ ]: non-standard residue; d: D form. The star is where a group is joined. hPhe(3-Cl-4-CF3) = N[C@@H](CCc1ccc(C(F)(F)F)c(Cl)c1)C(=O)O; NEtPhe(4-Me) = CCN[C@@H](Cc1ccc(C)cc1)C(=O)O; NMeGly(cPent) = CN[C@H](C(=O)O)C1CCCC1; NMeD = CN[C@@H](CC(=O)O)C(=O)O; NMeL = CN[C@@H](CC(C)C)C(=O)O; Morpholide = C1CN(*)CCO1; Ac5c = NC1(C(=O)O)CCCC1; Sar = CNCC(=O)O

GDP-bound HRAS wild-type protein, sequence (P01112 whole entry): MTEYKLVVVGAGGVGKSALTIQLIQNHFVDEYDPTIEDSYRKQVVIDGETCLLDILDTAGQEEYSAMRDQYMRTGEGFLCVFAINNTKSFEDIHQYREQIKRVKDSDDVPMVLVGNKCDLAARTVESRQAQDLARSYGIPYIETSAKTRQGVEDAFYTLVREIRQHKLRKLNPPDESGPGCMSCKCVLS
GDP-bound NRAS wild-type protein, sequence (P01111 whole entry): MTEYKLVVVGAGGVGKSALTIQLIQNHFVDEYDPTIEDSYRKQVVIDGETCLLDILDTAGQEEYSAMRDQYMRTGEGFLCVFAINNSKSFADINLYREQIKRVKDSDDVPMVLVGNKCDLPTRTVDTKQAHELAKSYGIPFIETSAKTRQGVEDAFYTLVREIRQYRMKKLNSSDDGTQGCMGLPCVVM

For the compound `CCO[C@@H]1CCN2C(=O)[C@H](CCc3cc(F)c(C(F)(F)F)c(F)c3)NC(=O)CN(C)C(=O)[C@H](Cc3ccc(C(F)(F)F)cc3)N3CCCC[C@@H](C3=O)N(C)C(=O)CN(C)C(=O)[C@H]([C@@H](C)CC)NC(=O)[C@H](CC(C)C)N(C)C(=O)C[C@@H](C(=O)N3CCOCC3)N(C)C(=O)[C@H](C3CCCC3)N(C)C(=O)C3(CCC3)NC(=O)[C@H]12` [PP1079], the “NRAS/KRAS (ratio of KD value with respect to NRAS to KD value with respect to KRAS)” value in assay [1] (setting [3]) is “B (a compound having 3 or more and less than 10 is denoted as B)”. The “HRAS/KRAS (ratio of KD value with respect to HRAS to KD value with respect to KRAS)” value in assay [2] (setting [4]) is “B (a compound having 3 or more and less than 10 is denoted as B)”.
`CCO[C@@H]1C[C@H]2C(=O)NC3(CC(C)(C)C3)C(=O)N(C)[C@@H](C(CC)CC)C(=O)N(C)[C@H](C(=O)N(C)C)CC(=O)N(C)[C@@H](CC3CCC3)C(=O)N[C@@H]([C@@H](C)CC)C(=O)N(C)CC(=O)N(C)[C@H]3C/C=C\CCN(C3=O)[C@@H](Cc3ccc(C)cc3)C(=O)N(C)CC(=O)N[C@@H](CCc3ccc(C(F)(F)F)c(OC)c3)C(=O)N2C1` [PP2172]: the “NRAS/KRAS (ratio of KD value with respect to NRAS to KD value with respect to KRAS)” value in assay [1] (setting [5]) was “A (a compound having 10 or more and less than 20 is denoted as A)”. In addition, in assay [2] (setting [6]), the “HRAS/KRAS (ratio of KD value with respect to HRAS to KD value with respect to KRAS)” value is “B (a compound having 3 or more and less than 10 is denoted as B)”.
As to `CCCOC[C@H]1C(=O)N[C@@H]([C@@H](C)CC)C(=O)N(C)CC(=O)N(C)[C@H]2C/C=C\CCN(C2=O)[C@@H](CC2CCC(F)(F)CC2)C(=O)N(C)CC(=O)N[C@@H](CCc2cc(F)c(C(F)(F)F)c(F)c2)C(=O)N2C[C@@H](C)C[C@H]2C(=O)NC2(CC(C)(C)C2)C(=O)N(C)[C@@H](C(CC)CC)C(=O)N(C)[C@H](C(=O)N(C)C)CC(=O)N1C` [PP2490], in assay [1] (setting [5]), the “NRAS/KRAS (ratio of KD value with respect to NRAS to KD value with respect to KRAS)” value is “AA (a compound having 20 or more is denoted as AA)”. In assay [2] (setting [6]), the “HRAS/KRAS (ratio of KD value with respect to HRAS to KD value with respect to KRAS)” value is “A (a compound having 10 or more and less than 20 is denoted as A)”.
Regarding `CCO[C@@H]1C[C@H]2C(=O)NC3(CC(C)(C)C3)C(=O)N(C)[C@@H](C3CCCC3)C(=O)N(C)[C@H](C(=O)N(C)CC)CC(=O)N(C)[C@H]3CCCC/C=C/c4ccc(cc4)C[C@@H](C(=O)N(C)CC(=O)N[C@@H](CCc4cc(F)c(C(F)(F)F)c(F)c4)C(=O)N2C1)N1CC/C=C\C[C@@H](C1=O)N(C)C(=O)CN(C)C(=O)[C@H]([C@@H](C)CC)NC3=O` [PP1829], in assay [1] (setting [3]), the “NRAS/KRAS (ratio of KD value for NRAS to KD value for KRAS)” value was “A (a compound having 10 or more and less than 20 is denoted as A)”. In addition, in assay [2] (setting [4]), the “HRAS/KRAS (ratio of KD value for HRAS to KD value for KRAS)” value is “B (a compound having 3 or more and less than 10 is denoted as B)”.
Turning to `CCCC[C@H]1C(=O)N[C@@H]([C@@H](C)CC)C(=O)N(C)CC(=O)N(C)[C@H]2C/C=C\CCN(C2=O)[C@@H](Cc2ccc(C)cc2)C(=O)N(C)CC(=O)N[C@@H](CCc2cc(F)c(C(F)(F)F)c(F)c2)C(=O)N2C[C@H](OCC)C[C@H]2C(=O)NC2(CC(C)(C)C2)C(=O)N(C)[C@@H](C2CCCC2)C(=O)N(C)[C@H](C(=O)N(C)C)CC(=O)N1C` [PP2800], the “NRAS/KRAS (ratio of KD value with respect to GDP-bound NRAS wild-type protein to KD value with respect to KRAS)” value in assay [1] (KD ratio NRAS/KRAS, class symbols) is “A (a compound having 10 or more and less than 20 is denoted as A)”. The “HRAS/KRAS (ratio of KD value with respect to GDP-bound HRAS wild-type protein to KD value with respect to KRAS)” value in assay [2] (KD ratio HRAS/KRAS, class symbols) is “A (a compound having 10 or more and less than 20 is denoted as A)”.
Regarding `CC[C@H](C)[C@@H]1NC(=O)[C@H](CC(C)C)N(C)C(=O)C[C@@H](C(=O)N2CCOCC2)N(C)C(=O)[C@H](C2CCCC2)N(C)C(=O)C2(CCCC2)NC(=O)[C@@H]2CCCN2C(=O)[C@H](CCc2ccc(C(F)(F)F)c(Cl)c2)NC(=O)CN(C)C(=O)[C@H](Cc2ccc(C)cc2)N(CC)C(=O)CN(C)C(=O)CN(C)C1=O` [PP0022] ([NMeL]I[Sar][Sar][NEtPhe(4-Me)][Sar][hPhe(3-Cl-4-CF3)]P[Ac5c][NMeGly(cPent)][NMeD]-Morpholide; lactam N-11), in assay [1] (KD ratio NRAS/KRAS, SPR), the “NRAS/KRAS (ratio of KD for GDP-bound NRAS wild-type to KD for KRAS)” value is “B (a compound having 3 or more and less than 10 is denoted as B)”. In addition, the “HRAS/KRAS (ratio of KD for GDP-bound HRAS wild-type to KD for KRAS)” value in assay [2] (KD ratio HRAS/KRAS, SPR) was “C (A compound having a KD ratio of 0.1 or more and less than 3 is denoted as C)”.
As to `CCO[C@@H]1C[C@H]2C(=O)NC3(CCC3)C(=O)N(C)[C@@H](C(CC)CC)C(=O)N(C)[C@H](C(=O)N(C)CCOC)CC(=O)N(C)[C@@H](CC)C(=O)N[C@@H]([C@@H](C)CC)C(=O)N(C)CC(=O)N(C)[C@H]3C/C=C\CCN(C3=O)[C@@H](Cc3ccc(C(F)(F)F)cc3)C(=O)N(C)CC(=O)N[C@@H](CCc3cc(F)c(C(F)(F)F)c(F)c3)C(=O)N2C1` [PP1330], the “NRAS/KRAS (ratio of KD value for GDP-bound NRAS wild-type protein to KD value for KRAS)” value in assay [1] (SPR, KD ratio class) is “AA (a compound having 20 or more is denoted as AA)”. Further, the “HRAS/KRAS (ratio of KD value for GDP-bound HRAS wild-type protein to KD value for KRAS)” value in assay [2] (SPR, KD ratio class) was “A (a compound having 10 or more and less than 20 is denoted as A)”.
